Results on 18 compounds are retold here after patent publication US7932269B2, “Sulfonamides as orexin antagonists” (Hoffmann-La Roche Inc., priority 2008, dated 2011).

No end group written: not given here.

Assay [1] addresses T1, human orexin-2 (hOX2) receptors (Homo sapiens, UniProt O43614).
T1 construct: expressed in transfected cells
T1 sequence (O43614 1-444): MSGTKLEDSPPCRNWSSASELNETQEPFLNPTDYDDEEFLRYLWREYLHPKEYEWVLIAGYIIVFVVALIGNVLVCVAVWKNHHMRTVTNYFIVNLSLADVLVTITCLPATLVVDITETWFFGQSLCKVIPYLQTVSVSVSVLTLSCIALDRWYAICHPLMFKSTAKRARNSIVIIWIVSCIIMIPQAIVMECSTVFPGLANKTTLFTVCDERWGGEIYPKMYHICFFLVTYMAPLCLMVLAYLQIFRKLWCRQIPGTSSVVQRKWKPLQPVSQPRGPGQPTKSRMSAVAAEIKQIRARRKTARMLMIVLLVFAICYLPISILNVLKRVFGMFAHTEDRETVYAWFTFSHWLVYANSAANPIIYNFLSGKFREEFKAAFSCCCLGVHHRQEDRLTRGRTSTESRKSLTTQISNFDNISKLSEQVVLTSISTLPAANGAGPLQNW
In words: Intracellular Ca2+ mobilization assay (FLIPR), orexin-A as agonist. As to conditions: CHO(dHFr-) cells stably expressing hOX2; antagonist applied 25 min before EC80 of orexin-A; Kb=IC50/(1+[A]/EC50); read-out: Kb (μM) OX2R (human). The format is cell-based. On the procedure:
Intracellular Ca^2+ Mobilization Assay
The Chinese Hamster Ovary (dHFr-) mutant cell line stably expressing human orexin-1 (hOX1) or human orexin-2 (hOX2) receptors were maintained in Dulbecco's Modified Eagle Medium (1X) with GlutaMax™ 1, 4500 mg/L D-Glucose and Sodium Pyruvate (Catalog No. 31966-021, Invitrogen, Carlsbad, Calif.), 5% dialyzed fetal calf serum (Catalog No. 26400-044), 100 μg/ml penicillin and 100 μg/ml streptomycin. The cells were seeded at 5×10^4 cells/well in the poly-D-lysine treated, 96-well, black/clear-bottomed plates (Catalog No. BD356640, BD Biosciences, Palo Alto, Calif.). 24 h later, the cells were loaded for 1 hr at 37° C. with 4 μM Flou-4 acetoxymethyl ester (Catalog No. F-14202, Molecular Probes, Eugene, Oreg.) in FLIPR buffer (1×HBSS, 20 mM HEPES, 2.5 mM Probenecid). Hanks' Balanced Salt Solution (HBSS) (10X) (catalog No. 14065-049) and HEPES (1M) (catalog No. 15630-056) were purchased from Invitrogen, Carlsbad, Calif. Probenecid (250 mM) (catalog No. P8761) was from Sigma, Buchs, Switzerland. The cells were washed five times with FLIPR buffer to remove excess dye and intracellular calcium mobilization, [Ca^2+] were measured using a Fluorometric Imaging Plate Reader (FLIPR-96, Molecular Devices, Menlo Park, Calif.) as described previously (Malherbe et al., Mol. Pharmacol., 64, 823-832, 2003). Orexin A (catalog No.1455, Toris Cookson Ltd, Bristol, UK) was used as agonist. Orexin A ([…] stock solution in DMSO) was diluted in FLIPR buffer +0.1% BSA. The EC50 and EC80 values of orexin-A were measured daily from standard agonist concentration-response curves in CHO(dHFr-)-OX1R and —OX2R cell lines. All compounds were dissolved in 100% DMSO. Inhibition curves were determined by addition of 11 concentrations (0.0001-10 μM) of inhibitory compounds and using EC80 value of orexin-A as agonist (a concentration which gave 80% of max agonist response, determined daily). The antagonists were applied 25 min (incubation at 37° C.) before the application of the agonist. Responses were measured as peak increase in fluorescence minus basal, normalized to the maximal stimulatory effect induced by EC80 value of orexin-A or orexin-B. Inhibition curves were fitted according to the Hill equation: y=100/(1+(x/1C50)^nH), where nH=slope factor using Excel-fit 4 software (Microsoft). Kb values were calculated according to the following equation Kb=IC50/(1+[A]/EC50) where A is the concentration of agonist added which is very close to agonist EC80 value, and IC50 and EC50 values were derived from the antagonist inhibition and orexin-A or B agonist curves, respectively.
A general note: A change in cytosolic calcium serves as a functional read-out for many receptors and channels.

The subject of another assay is rat. The note with it: icv administration; cited from earlier work.

As usually defined, the Kb is the equilibrium dissociation constant of an antagonist, usually derived from a functional assay. On to `O=C(CN(c1ccc(Cl)cc1)S(=O)(=O)c1ccc(Cl)cc1)N1CCCC1c1ccc(F)cc1` (stereo not drawn) [Example 19, 4-Chloro-N-(4-chloro-phenyl)-N-{2-[2-(4-fluoro-phenyl)-pyrrolidin-1-yl]-2-oxo-ethyl}-benzenesulfonamide], for which the antagonist dissociation constant (Kb) in assay [1] worked out at 0.002 µM.

With `Cc1ccccc1S(=O)(=O)N(CC(=O)N1CCCC1c1ccc(F)cc1)c1ccc(Cl)cc1` (stereo not drawn) [Example 20, N-(4-Chloro-phenyl)-N-{2-[2-(4-fluoro-phenyl)-pyrrolidin-1-yl]-2-oxo-ethyl}-2-methyl-benzenesulfonamide], the Kb in assay [1] came out at 0.0006 µM.

With `COc1cccc(S(=O)(=O)N(CC(=O)N2CCCC2c2ccc(F)cc2)c2ccc(Cl)cc2)c1` (stereo not drawn) [Example 21, N-(4-Chloro-phenyl)-N-{2-[2-(4-fluoro-phenyl)-pyrrolidin-1-yl]-2-oxo-ethyl}-3-methoxy-benzenesulfonamide], in assay [1], the antagonist equilibrium constant (Kb) worked out at 0.0006 µM.

`COc1ccc(S(=O)(=O)N(CC(=O)N2CCCC2c2ccc(F)cc2)c2ccc(Cl)cc2)cc1` (stereo not drawn) [Example 22, N-(4-Chloro-phenyl)-N-{2-[2-(4-fluoro-phenyl)-pyrrolidin-1-yl]-2-oxo-ethyl}-4-methoxy-benzenesulfonamide]: in assay [1], the Kb is 0.0017 µM.

For the compound `Cc1ccc(S(=O)(=O)N(CC(=O)N2CCCC2c2ccc(F)cc2)c2ccc(Cl)cc2)cc1` (stereo not drawn) [Example 23, N-(4-Chloro-phenyl)-N-{2-[2-(4-fluoro-phenyl)-pyrrolidin-1-yl]-2-oxo-ethyl}-4-methyl-benzenesulfonamide], the antagonist dissociation constant (Kb) in assay [1] amounted to 0.0013 µM.

`Cc1cccc(S(=O)(=O)N(CC(=O)N2CCCC2c2ccc(F)cc2)c2ccc(Cl)cc2)c1` (stereo not drawn) [Example 24, N-(4-Chloro-phenyl)-N-{2-[2-(4-fluoro-phenyl)-pyrrolidin-1-yl]-2-oxo-ethyl}-3-methyl-benzenesulfonamide]: the Kb in assay [1] turned out to be 0.0005 µM.

Turning to `COc1ccc(S(=O)(=O)N(CC(=O)N2CCCC2c2ccc(F)cc2)c2ccccc2OC)cc1` (stereo not drawn) [Example 26, N-{2-[2-(4-Fluoro-phenyl)-pyrrolidin-1-yl]-2-oxo-ethyl}-4-methoxy-N-(2-methoxy-phenyl)-benzenesulfonamide], the Kb in assay [1] is 0.005 µM.

As for `COc1ccc(N(CC(=O)N2CCCC2c2ccccc2)S(=O)(=O)c2ccc(OC)cc2)cc1` (stereo not drawn) [Example 27, 4-Methoxy-N-(4-methoxy-phenyl)-N-[2-oxo-2-(2-phenyl-pyrrolidin-1-yl)-ethyl]-benzenesulfonamide], the antagonist dissociation constant (Kb) in assay [1] is 0.003 µM.

Regarding `COc1ccc(S(=O)(=O)N(CC(=O)N2CCCC2c2ccc(F)cc2)c2cccc(F)c2)cc1` (stereo not drawn) [Example 31, N-(3-Fluoro-phenyl)-N-{2-[2-(4-fluoro-phenyl)-pyrrolidin-1-yl]-2-oxo-ethyl}-4-methoxy-benzenesulfonamide], in assay [1], the antagonist dissociation constant (Kb) was 0.0064 µM.

`COc1ccc(S(=O)(=O)N(CC(=O)N2CCCC2c2ccccc2)c2cccc(F)c2)cc1` (stereo not drawn) [Example 36, N-(3-Fluoro-phenyl)-4-methoxy-N-[2-oxo-2-(2-phenyl-pyrrolidin-1-yl)-ethyl]-benzenesulfonamide]: the Kb in assay [1] worked out at 0.0077 µM.

As for `COc1ccc(S(=O)(=O)N(CC(=O)N2CCCC2c2ccccc2)c2ccc(F)cc2)cc1` (stereo not drawn) [Example 38, N-(4-Fluoro-phenyl)-4-methoxy-N-[2-oxo-2-(2-phenyl-pyrrolidin-1-yl)-ethyl]-benzenesulfonamide], the antagonist equilibrium constant (Kb) in assay [1] stood at 0.0096 µM.

In the case of `O=C(CN(c1ccc(Cl)cc1)S(=O)(=O)c1ccc(F)cc1)N1CCCC1c1ccc(F)cc1` (stereo not drawn) [Example 40, N-(4-Chloro-phenyl)-4-fluoro-N-{2-[2-(4-fluoro-phenyl)-pyrrolidin-1-yl]-2-oxo-ethyl}-benzenesulfonamide], the antagonist equilibrium constant (Kb) in assay [1] stood at 0.0005 µM.

For the compound `COc1ccc(N(CC(=O)N2CCCC2c2ccc(F)cc2)S(=O)(=O)c2ccc(OC)cc2)cc1` (stereo not drawn) [Example 41, N-{2-[2-(4-Fluoro-phenyl)-pyrrolidin-1-yl]-2-oxo-ethyl}-4-methoxy-N-(4-methoxy-phenyl)-benzenesulfonamide], the Kb in assay [1] amounted to 0.0026 µM.

`COc1ccc(S(=O)(=O)N(CC(=O)N2CCCC2c2ccccc2)c2ccccc2OC)cc1` (stereo not drawn) [Example 43, 4-Methoxy-N-(2-methoxy-phenyl)-N-[2-oxo-2-(2-phenyl-pyrrolidin-1-yl)-ethyl]-benzenesulfonamide]: the Kb in assay [1] turned out to be 0.0032 µM.

With `COc1ccc(S(=O)(=O)N(CC(=O)N2CCCC2c2ccc(F)cc2)c2ccc(F)cc2)cc1` (stereo not drawn) [Example 45, N-(4-Fluoro-phenyl)-N-{2-[2-(4-fluoro-phenyl)-pyrrolidin-1-yl]-2-oxo-ethyl}-4-methoxy-benzenesulfonamide], the Kb in assay [1] turned out to be 0.0079 µM.

As for `COc1ccc(S(=O)(=O)N(CC(=O)N2CCCC2c2ccccc2)c2cccc(C(F)(F)F)c2)cc1` (stereo not drawn) [Example 47, 4-Methoxy-N-[2-oxo-2-(2-phenyl-pyrrolidin-1-yl)-ethyl]-N-(3-trifluoromethyl-phenyl)-benzenesulfonamide], the Kb in assay [1] stood at 0.0077 µM.

As to `COc1ccccc1S(=O)(=O)N(CC(=O)N1CCCC1c1ccc(F)cc1)c1ccc(Cl)cc1` (stereo not drawn) [Example 52, N-(4-Chloro-phenyl)-N-{2-[2-(4-fluoro-phenyl)-pyrrolidin-1-yl]-2-oxo-ethyl}-2-methoxy-benzenesulfonamide], in assay [1], the Kb worked out at 0.0003 µM.

Regarding “OX-A: orexin-A/hypocretin1, 33 amino acid hypothalamic neuropeptide derived from prepro-orexin (QPLPDCCRQKTCSCRLYELLHGAGNHAAGILTL; ends and bridges not checked; cysteine pairing not given here; UniProt O43612 34-66, looked up)”, the “reduction of total REM sleep” value in the assay with rat was 84%.
